# Source: US12486290B2, “Isoindolinone and indazole compounds for the degradation of EGFR” (C4 THERAPEUTICS, INC., priority 2019, dated 2025)
# How the values were obtained:
# Assay type in all cases: cell-based
# [1] = target: T1, EGFR T790M/L858R/C797S (NCI-H1975+CS cells) (Homo sapiens, UniProt P00533, C797S/L858R/T790M); assay: EGFR (L858R) degradation analysis, Total EGFR (L858R) HTRF, NCI-H1975+CS cells; conditions: 6 hours, read-out: H1975 C797S clone EGFR DC50
# T1 construct: NCI-H1975+CS (harboring EGFR heterozygous T/790M/L858R/C797S mutations) was generated using CRISPR technology; host or cells: NCI-H1975+CS (CRISPR-edited NCI-H1975)
# T1 sequence (P00533 25-1210 T790M/C797S/L858R): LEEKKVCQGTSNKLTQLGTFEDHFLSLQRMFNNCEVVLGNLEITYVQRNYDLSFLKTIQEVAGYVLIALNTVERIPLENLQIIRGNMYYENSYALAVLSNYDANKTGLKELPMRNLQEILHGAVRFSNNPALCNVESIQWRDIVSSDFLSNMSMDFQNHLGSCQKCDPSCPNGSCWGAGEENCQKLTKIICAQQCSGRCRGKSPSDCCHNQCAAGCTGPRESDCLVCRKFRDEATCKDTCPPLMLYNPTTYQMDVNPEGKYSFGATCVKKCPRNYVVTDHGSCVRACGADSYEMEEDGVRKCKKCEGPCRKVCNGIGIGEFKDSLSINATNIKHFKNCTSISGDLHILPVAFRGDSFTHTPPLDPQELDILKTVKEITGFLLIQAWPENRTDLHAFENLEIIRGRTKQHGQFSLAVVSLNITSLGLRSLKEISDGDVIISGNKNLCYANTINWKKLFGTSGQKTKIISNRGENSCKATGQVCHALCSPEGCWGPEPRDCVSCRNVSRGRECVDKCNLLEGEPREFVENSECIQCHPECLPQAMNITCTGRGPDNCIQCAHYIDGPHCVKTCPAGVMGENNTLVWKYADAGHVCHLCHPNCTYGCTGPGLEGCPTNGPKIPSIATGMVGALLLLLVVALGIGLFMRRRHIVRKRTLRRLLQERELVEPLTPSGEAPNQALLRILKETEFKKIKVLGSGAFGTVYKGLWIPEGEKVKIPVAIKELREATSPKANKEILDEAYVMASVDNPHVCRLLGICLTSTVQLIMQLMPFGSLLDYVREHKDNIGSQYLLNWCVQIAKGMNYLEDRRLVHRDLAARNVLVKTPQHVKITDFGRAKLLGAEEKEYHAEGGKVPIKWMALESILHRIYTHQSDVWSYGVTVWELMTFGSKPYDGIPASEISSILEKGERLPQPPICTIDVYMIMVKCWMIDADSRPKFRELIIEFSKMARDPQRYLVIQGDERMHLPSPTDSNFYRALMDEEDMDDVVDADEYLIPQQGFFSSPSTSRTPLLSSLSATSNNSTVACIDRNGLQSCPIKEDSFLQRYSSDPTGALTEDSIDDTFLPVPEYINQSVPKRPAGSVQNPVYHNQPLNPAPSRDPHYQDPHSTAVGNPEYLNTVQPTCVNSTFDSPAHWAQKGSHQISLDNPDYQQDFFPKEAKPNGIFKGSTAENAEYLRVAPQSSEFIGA
# Excerpt: (§1) NCI-H1975 (harboring EGFR heterozygous T790M/L858R mutations) and NCI-H3255 (harboring EGFR heterozygous L858R mutation) were purchased from ATCC and NCI, respectively. NCI-H1975+CS (harboring EGFR heterozygous T/790M/L858R/C797S mutations) was generated using CRISPR technology to introduce the additional C797S mutation by Horizon Discovery. RPMI 1640 no-phenol red medium and fetal bovine serum (FBS) were purchased from Gibco (Grand Island, NY, USA). Cell culture flasks and 384-well microplates were acquired from VWR (Radnor, PA, USA). Total EGFR (L858R) HTRF assay kits were purchased from Cisbio (Bedford, MA, USA).
# (§2) Degradation of EGFR protein containing L858R mutation was determined based on quantification of FRET signal using Total EGFR (L858R) HTRF assay kit. Test compounds were added to the 384-well plate from a top concentration of 10 μM with 11 points, half log titration in duplicates. NCI-H1975, NCI-H1975+CS or NCI-H3255 cells were added into 384-well plates at a cell density of 10000, 10000 or 1000 cells per well, respectively. The plates were kept at 37° C. with 5% CO2 for 6 hours. Cells treated in the absence of the test compound were the negative control. Positive control was set by wells containing all reagents but no cells. FRET signal was acquired on EnVision™ Multilabel Reader (PerkinElmer, Santa Clara, CA, USA).
# [2] = target: T2, EGFR L858R (NCI-H3255 cells) (Homo sapiens, UniProt P00533, L858R); assay: EGFR (L858R) degradation analysis, Total EGFR (L858R) HTRF, NCI-H3255 cells; conditions: 6 hours
# T2 construct: NCI-H3255 (harboring EGFR heterozygous L858R mutation); host or cells: NCI-H3255
# T2 sequence (P00533 25-1210 L858R): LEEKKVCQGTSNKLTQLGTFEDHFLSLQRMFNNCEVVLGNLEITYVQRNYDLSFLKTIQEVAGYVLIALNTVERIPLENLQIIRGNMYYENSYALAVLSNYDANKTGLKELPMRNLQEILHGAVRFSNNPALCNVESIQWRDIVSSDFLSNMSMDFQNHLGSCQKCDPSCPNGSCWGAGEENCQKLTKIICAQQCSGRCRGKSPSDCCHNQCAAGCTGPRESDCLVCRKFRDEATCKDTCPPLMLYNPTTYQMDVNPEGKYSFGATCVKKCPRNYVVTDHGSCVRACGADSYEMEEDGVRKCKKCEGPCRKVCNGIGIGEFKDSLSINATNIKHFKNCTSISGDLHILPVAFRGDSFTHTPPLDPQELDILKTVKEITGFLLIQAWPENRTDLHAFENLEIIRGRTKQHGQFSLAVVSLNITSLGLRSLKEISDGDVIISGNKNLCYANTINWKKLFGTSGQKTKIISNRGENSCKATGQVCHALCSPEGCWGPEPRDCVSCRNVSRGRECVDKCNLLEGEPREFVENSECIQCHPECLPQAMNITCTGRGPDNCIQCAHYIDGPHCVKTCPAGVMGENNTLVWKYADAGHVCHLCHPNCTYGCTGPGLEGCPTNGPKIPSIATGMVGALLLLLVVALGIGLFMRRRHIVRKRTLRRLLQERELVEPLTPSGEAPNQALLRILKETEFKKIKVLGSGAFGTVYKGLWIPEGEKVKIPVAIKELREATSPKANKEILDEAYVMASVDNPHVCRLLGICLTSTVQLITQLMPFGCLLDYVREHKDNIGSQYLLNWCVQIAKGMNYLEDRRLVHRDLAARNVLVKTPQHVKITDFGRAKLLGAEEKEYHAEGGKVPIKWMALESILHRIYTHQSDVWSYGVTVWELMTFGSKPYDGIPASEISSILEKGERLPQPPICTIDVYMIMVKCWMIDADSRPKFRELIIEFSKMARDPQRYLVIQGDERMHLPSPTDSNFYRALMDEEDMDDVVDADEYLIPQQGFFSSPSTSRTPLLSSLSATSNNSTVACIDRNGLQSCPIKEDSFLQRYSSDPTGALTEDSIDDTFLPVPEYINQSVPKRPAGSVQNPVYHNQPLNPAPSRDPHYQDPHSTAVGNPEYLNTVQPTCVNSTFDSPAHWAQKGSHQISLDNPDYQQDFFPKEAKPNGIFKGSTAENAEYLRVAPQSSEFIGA
# Excerpt: as §1, §2
# [3] = target: T3, EGFR T790M/L858R (NCI-H1975 cells) (Homo sapiens, UniProt P00533, L858R/T790M); assay: EGFR (L858R) degradation analysis, Total EGFR (L858R) HTRF, NCI-H1975 cells; conditions: 6 hours
# T3 construct: NCI-H1975 (harboring EGFR heterozygous T790M/L858R mutations); host or cells: NCI-H1975
# T3 sequence (P00533 25-1210 T790M/L858R): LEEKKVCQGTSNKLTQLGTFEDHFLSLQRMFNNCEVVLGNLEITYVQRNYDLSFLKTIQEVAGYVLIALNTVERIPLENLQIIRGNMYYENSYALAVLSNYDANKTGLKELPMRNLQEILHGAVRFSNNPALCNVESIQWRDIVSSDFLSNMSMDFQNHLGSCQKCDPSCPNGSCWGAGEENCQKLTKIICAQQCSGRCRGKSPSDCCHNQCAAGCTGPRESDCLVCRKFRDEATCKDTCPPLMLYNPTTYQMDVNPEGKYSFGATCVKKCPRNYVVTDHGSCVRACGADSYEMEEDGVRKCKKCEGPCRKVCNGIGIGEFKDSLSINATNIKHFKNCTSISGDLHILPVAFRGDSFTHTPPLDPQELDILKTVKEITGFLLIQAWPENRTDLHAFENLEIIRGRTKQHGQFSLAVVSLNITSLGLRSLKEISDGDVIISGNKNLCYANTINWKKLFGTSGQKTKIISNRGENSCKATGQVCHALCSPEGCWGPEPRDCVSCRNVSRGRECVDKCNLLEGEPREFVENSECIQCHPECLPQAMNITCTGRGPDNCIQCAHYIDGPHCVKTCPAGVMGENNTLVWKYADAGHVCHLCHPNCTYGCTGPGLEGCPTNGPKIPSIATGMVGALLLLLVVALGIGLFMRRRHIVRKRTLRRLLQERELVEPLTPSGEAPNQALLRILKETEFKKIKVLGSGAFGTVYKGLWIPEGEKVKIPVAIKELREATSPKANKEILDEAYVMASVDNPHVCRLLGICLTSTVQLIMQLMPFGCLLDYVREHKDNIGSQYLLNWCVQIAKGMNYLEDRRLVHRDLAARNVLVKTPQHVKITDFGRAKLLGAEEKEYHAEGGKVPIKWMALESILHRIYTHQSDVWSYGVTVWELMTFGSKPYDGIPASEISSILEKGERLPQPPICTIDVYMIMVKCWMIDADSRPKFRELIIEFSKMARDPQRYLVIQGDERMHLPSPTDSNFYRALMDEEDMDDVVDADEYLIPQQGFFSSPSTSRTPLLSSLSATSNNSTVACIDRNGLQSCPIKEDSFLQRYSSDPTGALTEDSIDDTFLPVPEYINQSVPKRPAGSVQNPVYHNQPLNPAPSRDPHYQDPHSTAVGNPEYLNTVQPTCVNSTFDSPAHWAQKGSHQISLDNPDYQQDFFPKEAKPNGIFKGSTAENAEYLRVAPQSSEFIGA
# How it was run: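 Cells (10000/well NCI-H1975 and NCI-H1975+CS, 1000/well NCI-H3255) treated with 11-point half-log titrations from 10 μM top, in duplicate, for 6 hours at 37° C., 5% CO2. Total EGFR (L858R) quantified by HTRF FRET; untreated cells as negative and cell-free wells as positive control.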
Structure (SMILES),DC50 [1],DC50 [2],DC50 [3]
"O=C1CCC(Nc2ccc(C3CCN(CC(=O)N4CCC(NC(=O)c5ccc(C#Cc6cc(F)c7c(c6)C(=O)N(C(C(=O)Nc6nccs6)c6ncn8c6CCC8)C7)cn5)CC4)CC3)cc2)C(=O)N1 (racemic) [Compound 1, 5-[2-[7-Fluoro-3-oxo-2-[(1RS)-1-(6,7-dihydro-5H-pyrrolo[1,2-c]imidazol-1-yl)-2-oxo-2-(thiazol-2-ylamino)ethyl]isoindolin-5-yl]ethynyl]-N-[1-[2-[4-[4-[[(3RS)-2,6-dioxo-3-piperidyl]amino]phenyl]-1-piperidyl]acetyl]-4-piperidyl]pyridine-2-carboxamide]",17 nM,8 nM,6 nM
"O=C1CCC(Nc2ccc(C3CCN(CC(=O)N4CCN(c5ccc(-c6cc(F)c7c(c6)C(=O)N(C(C(=O)Nc6nccs6)c6ncn8c6CCC8)C7)cc5)CC4)CC3)cc2)C(=O)N1 (stereo not drawn) [Compound 5, 2-(6,7-dihydro-5H-pyrrolo[1,2-c]imidazol-1-yl)-2-[6-[4-[4-[2-[4-[4-[(2,6-dioxo-3-piperidyl)amino]phenyl]-1-piperidyl]acetyl]piperazin-1-yl]phenyl]-4-fluoro-1-oxo-isoindolin-2-yl]-N-thiazol-2-yl-acetamide]",17 nM,6 nM,20 nM
"O=C1CC[C@H](Nc2ccc(C3CCN(CC(=O)N4CCN(c5ccc(-c6cc(F)c7c(c6)C(=O)N(C(C(=O)Nc6nccs6)c6ncn8c6CCC8)C7)cc5)CC4)CC3)cc2)C(=O)N1 (stereo partly drawn) [Compound 6, 2-(6,7-dihydro-5H-pyrrolo[1,2-c]imidazol-1-yl)-2-[6-[4-[4-[2-[4-[4-[[(3S)-2,6-dioxo-3-piperidyl]amino]phenyl]-1-piperidyl]acetyl]piperazin-1-yl]phenyl]-4-fluoro-1-oxo-isoindolin-2-yl]-N-thiazol-2-yl-acetamide]",8 nM,7 nM,22 nM
"O=C1CCC(Nc2ccc(C3CCN(CC(=O)N4CCN(c5ccc(-c6cc(F)c7c(c6)C(=O)N(C(C(=O)Nc6nccs6)c6ncn8c6CCC8)C7)cc5)CC4)CC3)c(C(F)F)c2)C(=O)N1 (stereo not drawn) [Compound 15, 2-[6-[4-[4-[2-[4-[2-(difluoromethyl)-4-[(2,6-dioxo-3-piperidyl)amino]phenyl]-1-piperidyl]acetyl]piperazin-1-yl]phenyl]-4-fluoro-1-oxo-isoindolin-2-yl]-2-(6,7-dihydro-5H-pyrrolo[1,2-c]imidazol-1-yl)-N-thiazol-2-yl-acetamide]",10 nM,6 nM,34 nM
"Cn1nc(N2CCC(=O)NC2=O)c2ccc(C3CCN(CC(=O)N4CCN(c5ccc(-c6cc(F)c7c(c6)C(=O)N(C(C(=O)Nc6nccs6)c6ncn8c6CCC8)C7)cc5)CC4)CC3)cc21 (stereo not drawn) [Compound 17, 2-(6,7-dihydro-5H-pyrrolo[1,2-c]imidazol-1-yl)-2-(6-(4-(4-(2-(4-(3-(2,4-dioxotetrahydropyrimidin-1(2H)-yl)-1-methyl-1H-indazol-6-yl)piperidin-1-yl)acetyl)piperazin-1-yl)phenyl)-4-fluoro-1-oxoisoindolin-2-yl)-N-(thiazol-2-yl)acetamide]",22 nM,6 nM,29 nM
"O=C1CCC(Nc2ccc(C3CCN(CC(=O)N4CCN(c5ccc(-c6cc(F)c7c(c6)C(=O)N(C(C(=O)Nc6ccccn6)c6ncn8c6CCC8)C7)cc5)CC4)CC3)c(F)c2)C(=O)N1 (stereo not drawn) [Compound 20, 2-(6,7-dihydro-5H-pyrrolo[1,2-c]imidazol-1-yl)-2-[6-[4-[4-[2-[4-[4-[(2,6-dioxo-3-piperidyl)amino]-2-fluoro-phenyl]-1-piperidyl]acetyl]piperazin-1-yl]phenyl]-4-fluoro-1-oxo-isoindolin-2-yl]-N-(2-pyridyl)acetamide]",34 nM,25 nM,59 nM
"O=C1CC[C@@H](Nc2ccc(C3CCN(CC(=O)N4CCC(c5ccc(-c6cc(F)c7c(c6)C(=O)N(C(C(=O)Nc6nccs6)c6ncn8c6CCC8)C7)cc5)CC4)CC3)c(F)c2)C(=O)N1 (stereo partly drawn) [Compound 24, 2-(6,7-dihydro-5H-pyrrolo[1,2-c]imidazol-1-yl)-2-(6-(4-(1-(2-(4-(4-(((R)-2,6-dioxopiperidin-3-yl)amino)-2-fluorophenyl)piperidin-1-yl)acetyl)piperidin-4-yl)phenyl)-4-fluoro-1-oxoisoindolin-2-yl)-N-(thiazol-2-yl)acetamide]",24 nM,6 nM,70 nM
"O=C1CCC(Nc2ccc(C3CCN(CC(=O)N4CCN(c5ccc(-c6cc(F)c7cn(C(C(=O)Nc8nccs8)c8ncn9c8CCC9)nc7c6)cn5)CC4)CC3)nc2)C(=O)N1 (stereo not drawn) [Compound 66, 2-(6,7-dihydro-5H-pyrrolo[1,2-c]imidazol-1-yl)-2-[6-[6-[4-[2-[4-[5-[(2,6-dioxo-3-piperidyl)amino]-2-pyridyl]-1-piperidyl]acetyl]piperazin-1-yl]-3-pyridyl]-4-fluoro-indazol-2-yl]-N-thiazol-2-yl-acetamide]",–,31 nM,33 nM

# Second part, the compound after the results:
DC50 [1],DC50 [2],DC50 [3],Structure (SMILES)
18 nM,6 nM,13 nM,"O=C1CCC(Nc2ccc(C3CCN(CC(=O)N4CCN(c5ccc(-c6cc(F)c7c(c6)C(=O)N(C(C(=O)Nc6nccs6)c6ncn8c6C[C@@H](F)C8)C7)cc5)CC4)CC3)cc2)C(=O)N1 (mixture of isomers) [Compound 43, (2RS)-2-[6-[4-[4-[2-[4-[4-[[(3RS)-2,6-Dioxo-3-piperidyl]amino]phenyl]-1-piperidyl]acetyl]piperazin-1-yl]phenyl]-4-fluoro-1-oxo-isoindolin-2-yl]-2-[(6R)-6-fluoro-6,7-dihydro-5H-pyrrolo[1,2-c]imidazol-1-yl]-N-thiazol-2-yl-acetamide]"
20 nM,13 nM,50 nM,"O=C1CCC(Nc2ccc(C3CCN(CC(=O)N4CCN(c5ccc(-c6cc(F)c7c(c6)C(=O)N(C(C(=O)Nc6ccccn6)c6ncn8c6CCC8)C7)cc5)CC4)CC3)cc2)C(=O)N1 (stereo not drawn) [Compound 19, 2-(6,7-dihydro-5H-pyrrolo[1,2-c]imidazol-1-yl)-2-(6-(4-(4-(2-(4-(4-((2,6-dioxopiperidin-3-yl)amino)phenyl)piperidin-1-yl)acetyl)piperazin-1-yl)phenyl)-4-fluoro-1-oxoisoindolin-2-yl)-N-(pyridin-2-yl)acetamide]"
17 nM,11 nM,31 nM,"O=C1CCC(Nc2ccc(C3CCN(CC(=O)N4CCC(c5ccc(-c6cc(F)c7c(c6)C(=O)N(C(C(=O)Nc6nccs6)c6ncn8c6CCC8)C7)cc5)CC4)CC3)cc2)C(=O)N1 (stereo not drawn) [Compound 21, 2-(6,7-dihydro-5H-pyrrolo[1,2-c]imidazol-1-yl)-2-(6-(4-(1-(2-(4-(4-((2,6-dioxopiperidin-3-yl)amino)phenyl)piperidin-1-yl)acetyl)piperidin-4-yl)phenyl)-4-fluoro-1-oxoisoindolin-2-yl)-N-(thiazol-2-yl)acetamide]"
–,50 nM,27 nM,"Cn1nc(N2CCC(=O)NC2=O)c2ccc(C3CCN(CC(=O)N4CCN(c5ccc(-c6cc(F)c7cn(C(C(=O)Nc8nccs8)c8ncn9c8CCC9)nc7c6)cn5)CC4)CC3)cc21 (stereo not drawn) [Compound 67, 2-(6,7-dihydro-5H-pyrrolo[1,2-c]imidazol-1-yl)-2-[6-[6-[4-[2-[4-[3-(2,4-dioxohexahydropyrimidin-1-yl)-1-methyl-indazol-6-yl]-1-piperidyl]acetyl]piperazin-1-yl]-3-pyridyl]-4-fluoro-indazol-2-yl]-N-thiazol-2-yl-acetamide]"
–,34 nM,28 nM,"O=C1CC[C@H](Nc2ccc(C3CCN(CC(=O)N4CCN(c5ccc(-c6cc(F)c7cn(C(C(=O)Nc8nccs8)c8ncn9c8CCC9)nc7c6)cn5)CC4)CC3)c(F)c2)C(=O)N1 (stereo partly drawn) [Compound 68, 2-(6,7-dihydro-5H-pyrrolo[1,2-c]imidazol-1-yl)-2-(6-(6-(4-(2-(4-(4-(((S)-2,6-dioxopiperidin-3-yl)amino)-2-fluorophenyl)piperidin-1-yl)acetyl)piperazin-1-yl)pyridin-3-yl)-4-fluoro-2H-indazol-2-yl)-N-(thiazol-2-yl)acetamide]"
